In patent publication US9414901B2, “Drug-eluting stents for adenosine receptor modulation” (Indiana University Research and Technology Corporation, priority 2009, dated 2016):
In brackets after ≈: the same amount, converted by molar mass.

Key:
[1] = tested on: porcine CSM (coronary artery smooth muscle cells); assay: CSM proliferation/viability by MTT assay on collagen matrix/DPCPX-loaded PU film; format: cell-based, Ossabaw pigs; conditions: no DPCPX release, day 4
Experimental: A drug eluting film coated on the cover glass was placed in each well of a 24-well plate for a cell culture study.
Hearts were harvested from Ossabaw pigs. Coronary arteries dissected from the hearts were placed in a physiological buffer. Porcine CSM were enzymatically dispersed from coronary arteries using collagenase solutions. Primary cultured CSM were subcultured at 37° C. with 5% CO2 in DMEM containing 10% fetal bovine serum (FBS). CSM cultured with 80% confluence were used between passage 4 and 10.
The CSM were seeded on the surface of type I collagen that was gelated on the DPCPX-loaded PU film. The DPCPX-loaded PU films with various drug/polymer ratios and pure PU film as a control were placed in 24-well plates. Collagen solution was prepared by mixing eight parts of PURECOL (3 mg/mL) with one part of 10×PBS. The pH of the collagen solution was adjusted to 7.4 by adding 0.01 N HCl and 0.1 M NaOH. […] Subcultured CSM were suspended by trypsinization, counted and seeded on the collagen matrix/DPCPX-loaded PU film in 24 wells. […]
After 4 days, cell proliferation was estimated using an MTT cell growth assay kit (Chemicon International). […] The absorbance was read at 490 nm, which was directly proportional to the number of living cells. The measured absorbance in each treatment group was compared to the percent of control. […]

porcine CSM = conditions: cited from earlier work
[2] = In vitro DPCPX release from coated stents in PBS (HPLC); format: physicochemical; conditions: stents coated with DPCPX in polymer-1 or polymer-2 (PLGA), 30% and 50% DPCPX/polymer, PBS buffer
Experimental: The drug elution profiles of the two different sets of PU films were examined instead of expanded state of stents. […] The release rate was slightly accelerated with the increase in the drug/PU ratio on the stent coated at the constant drug density of 1 μg/mm^2 (30%>20%>10% DPCPX/PU ratio).
In the drug release study, 2 mL of PBS buffer was used as a release medium which was replaced with a fresh solution every day. Release profiles may be partially affected by dissolution-limited release in addition to diffusion-limited release. Previous studies used 1.5 mL of medium with addition of 10% ethanol or 1.5 mL of PBS with 0.005% Tween 20 per stent. Addition of ethanol in the release medium removed the solubility limitation, but ethanol affected the release profiles as confirmed in the accelerated release studies; thus, ethanol was not used in this study.
Stainless steel stents were coated with polymer and DPCPX in concentrations that optimized in vitro elution kinetics of DPCPX (FIG. 5). Stents used for in vivo testing were coated with 300 μg DPCPX and 700 μg PLGA ([…]) polymer. A1R selective antagonist-DPCPX was dissolved in THF along with polymer-1 and polymer-2. The solutions were spray coated on stainless steel stents. […] The amounts of released DPCPX were analyzed using HPLC. […]

[3] = tested on: ERK, JNK and PI3K-AKT signaling pathways in CSM; conditions: dose-dependent manner; cited from earlier work
physchem = conditions: thermodynamic from solid
[4] = tested on: in-stent coronary stenosis in metabolic syndrome pigs; assay: In-stent stenosis by IVUS 4 weeks after coronary stenting; format: in vivo, Ossabaw miniature swine; conditions: IVUS at 4 weeks
Text: Under angiographic guidance, polymer- and DPCPX-eluting stents were placed in either left circumflex (CFX) or left anterior descending (LAD) artery of anesthetized male Ossabaws by random assignment.
A stainless steel stent deployment was utilized to cause vascular injury, which leads to coronary neointima formation (in-stent stenosis) in lean Ossabaw swine and in Ossabaw swine with metabolic syndrome (also known as pre-diabetes).
Stents were inflated to 1.1× of lumen diameter. The right coronary artery (RC) served as a non-stented control. Pigs were allowed to recover for 4 weeks, then sacrificed, and coronary arteries were harvested for tissue analysis.
In-stent stenosis was quantified as the percent area covered with stenotic lesions in in-stent coronary segments in vivo using intravascular ultrasound (IVUS) right before sacrifice. Percent area in-stent stenosis=Area of Neointima/Area of Original Lumen indicated by stent struts×100.
Bare metal and paclitaxel stents were deployed in coronary arteries of lean and metabolic syndrome (MetS) pigs (n=5/group) with stent:artery ratios at 1.0 (A) and 1.3 (B), *p<0.01. Polymer-coated (Polymer, control) and DPCPX-eluting stents (DPCPX) were deployed concurrently in coronary arteries with stent:artery ratio of 1.1 in lean and MetS pigs (n=5/group, C), *p<0.01. (A-C) IVUS was done 4 weeks after stenting in vivo to evaluate in-stent stenosis. Percent area stenosis of in-stent segments was quantified by IVUS.

OC[C@H]1O[C@@H](n2cnc3c(NC4CCCC4)nc(Cl)nc32)[C@H](O)[C@@H]1O [CCPA, 2-Chloro-N-6-cyclopentyladenosine]
CSM viability (MTT), % of first control ([1]; 0.1 μM CCPA): 121.8% | CSM viability (MTT), % of first control ([1]; 10 μM CCPA): 112.2% | DNA synthesis, protein synthesis, and cell number in porcine CSM (porcine CSM): increase

Nc1ncnc2c1ncn2[C@@H]1O[C@H](CO)[C@@H](O)[C@H]1O [adenosine]
DNA synthesis, protein synthesis, and cell number in porcine CSM (porcine CSM): increase

CCCn1c(=O)c2[nH]c(C3CCCC3)nc2n(CCC)c1=O [DPCPX, 1,3-dipropyl-8-cyclopentyl xanthine]
period over which release of DPCPX was sustained [2]: ≥ 28 days | adenosine-induced ERK, JNK, and AKT phosphorylation [3]: significantly decreases | solubility at 48 h (physchem; PBS with 0.05% Tween 20, 37 °C, pH 7.4, aqueous with cosolvent or surfactant or cyclodextrin): 1.63 ± 0.08 µg/mL (≈ 5.35 µM) | solubility at 48 h (physchem; PBS, 37 °C, pH 7.4, aqueous buffer): 1.69 ± 0.72 µg/mL (≈ 5.55 µM) | solubility at 48 h (physchem; distilled water, pH adjusted, 37 °C, pH 3, aqueous buffer): ~1.6 µg/mL (≈ 5.26 µM) | solubility at 48 h (physchem; distilled water, pH adjusted, 37 °C, pH 11, aqueous buffer): 38.1 ± 2.3 µg/mL (≈ 125 µM) | solubility at 48 h (physchem; water, 37 °C, pH 7.4, water): 1.62 ± 0.12 µg/mL (≈ 5.32 µM) | decrease in in-stent stenosis ([4]; eluting stent (300 μg DPCPX, 700 μg PLGA) at 1.1 times lumen diameter, vs polymer-coated stent): 53%

CC(=O)O[C@H]1C(=O)[C@@]2(C)[C@H]([C@H](OC(=O)c3ccccc3)[C@]3(O)C[C@H](OC(=O)[C@H](O)[C@@H](NC(=O)c4ccccc4)c4ccccc4)C(C)=C1C3(C)C)[C@]1(OC(C)=O)CO[C@@H]1C[C@@H]2O [Paclitaxel]
decrease in in-stent stenosis ([4]; metabolic syndrome pigs, eluting stent deployed at 1.0 times lumen diameter, vs bare metal stent): 47% | decrease in in-stent stenosis ([4]; metabolic syndrome pigs, eluting stent deployed at 1.3 times lumen diameter, vs bare metal stent): 55%
